Laboratory results: patent US20220016115A1, “USP19 INHIBITORS FOR USE IN THERAPY” (ALMAC DISCOVERY LIMITED, priority 2018, published 2022)

Tests used:
Format in all cases: cell-based
[1] = molecular target: T1, USP19 (Homo sapiens, UniProt O94966); experiment: Cell target engagement, neuroblastoma cell line
T1 sequence (O94966 1-1318): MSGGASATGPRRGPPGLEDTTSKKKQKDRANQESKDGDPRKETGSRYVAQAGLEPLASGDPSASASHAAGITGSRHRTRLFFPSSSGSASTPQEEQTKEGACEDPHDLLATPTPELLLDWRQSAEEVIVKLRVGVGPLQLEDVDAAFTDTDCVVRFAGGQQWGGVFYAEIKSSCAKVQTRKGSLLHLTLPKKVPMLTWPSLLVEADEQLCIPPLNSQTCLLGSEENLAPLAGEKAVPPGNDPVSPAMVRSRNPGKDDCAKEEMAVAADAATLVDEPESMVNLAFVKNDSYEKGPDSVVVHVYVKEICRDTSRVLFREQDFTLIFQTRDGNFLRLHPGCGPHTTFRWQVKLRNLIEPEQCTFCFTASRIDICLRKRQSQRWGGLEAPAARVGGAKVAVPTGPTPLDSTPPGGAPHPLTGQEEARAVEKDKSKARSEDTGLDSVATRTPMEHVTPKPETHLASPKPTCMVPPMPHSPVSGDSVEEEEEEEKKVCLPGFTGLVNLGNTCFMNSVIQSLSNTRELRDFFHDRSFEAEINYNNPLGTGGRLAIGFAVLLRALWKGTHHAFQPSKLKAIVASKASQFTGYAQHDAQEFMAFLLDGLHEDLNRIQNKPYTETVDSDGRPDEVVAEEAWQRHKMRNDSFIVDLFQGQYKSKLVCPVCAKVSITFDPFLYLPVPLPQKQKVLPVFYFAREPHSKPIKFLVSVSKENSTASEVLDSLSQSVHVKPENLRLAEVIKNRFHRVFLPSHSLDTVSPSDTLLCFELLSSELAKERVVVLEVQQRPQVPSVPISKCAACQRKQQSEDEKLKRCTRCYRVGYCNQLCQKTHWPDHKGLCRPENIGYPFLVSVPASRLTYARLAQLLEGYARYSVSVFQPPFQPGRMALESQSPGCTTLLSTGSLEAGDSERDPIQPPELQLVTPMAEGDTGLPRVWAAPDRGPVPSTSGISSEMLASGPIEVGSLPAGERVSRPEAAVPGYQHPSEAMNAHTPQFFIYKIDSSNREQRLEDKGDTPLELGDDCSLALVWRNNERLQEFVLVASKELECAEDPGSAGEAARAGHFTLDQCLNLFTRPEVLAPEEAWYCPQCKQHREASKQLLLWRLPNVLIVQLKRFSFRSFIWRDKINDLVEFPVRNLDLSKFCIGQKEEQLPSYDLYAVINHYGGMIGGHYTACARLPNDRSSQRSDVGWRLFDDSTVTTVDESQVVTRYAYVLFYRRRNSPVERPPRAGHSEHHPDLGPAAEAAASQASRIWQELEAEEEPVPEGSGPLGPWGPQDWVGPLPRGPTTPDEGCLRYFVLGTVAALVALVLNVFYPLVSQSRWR
Experimental: (§1) Cells from a breast cancer cell line, a neuroblastoma cell line and a mouse skeletal muscle cell line were treated with a USP19 inhibitor compound (ADC-141, corresponding to Example 212 provided herein) for 2 hrs, lysed (lysis buffer: 50 mM Tris pH 7.4; 150 mM NaCl; 5 mM MgCl2; 0.5 mM EDTA; 0.5% NP40; 10% Glycerol; 2 mM DTT) and Ubiquitin-propargylamine (Ub-PA; UbiQ) or Ubiquitin-vinyl methyl ester (Ub-VME; Almac Sciences Scotland Limited) was then added. Samples were analysed by western blotting probing for USP19 (EC50 determined by densitometry).

[2] = molecular target: T1, USP19; experiment: Cell target engagement, breast cancer cell line
Experimental: as §1

[3] = molecular target: T2, USP19 (Mus musculus, UniProt Q3UJD6); experiment: Cell target engagement, mouse skeletal muscle cell line
T2 construct: endogenous in cells
T2 sequence (Q3UJD6 1-1360): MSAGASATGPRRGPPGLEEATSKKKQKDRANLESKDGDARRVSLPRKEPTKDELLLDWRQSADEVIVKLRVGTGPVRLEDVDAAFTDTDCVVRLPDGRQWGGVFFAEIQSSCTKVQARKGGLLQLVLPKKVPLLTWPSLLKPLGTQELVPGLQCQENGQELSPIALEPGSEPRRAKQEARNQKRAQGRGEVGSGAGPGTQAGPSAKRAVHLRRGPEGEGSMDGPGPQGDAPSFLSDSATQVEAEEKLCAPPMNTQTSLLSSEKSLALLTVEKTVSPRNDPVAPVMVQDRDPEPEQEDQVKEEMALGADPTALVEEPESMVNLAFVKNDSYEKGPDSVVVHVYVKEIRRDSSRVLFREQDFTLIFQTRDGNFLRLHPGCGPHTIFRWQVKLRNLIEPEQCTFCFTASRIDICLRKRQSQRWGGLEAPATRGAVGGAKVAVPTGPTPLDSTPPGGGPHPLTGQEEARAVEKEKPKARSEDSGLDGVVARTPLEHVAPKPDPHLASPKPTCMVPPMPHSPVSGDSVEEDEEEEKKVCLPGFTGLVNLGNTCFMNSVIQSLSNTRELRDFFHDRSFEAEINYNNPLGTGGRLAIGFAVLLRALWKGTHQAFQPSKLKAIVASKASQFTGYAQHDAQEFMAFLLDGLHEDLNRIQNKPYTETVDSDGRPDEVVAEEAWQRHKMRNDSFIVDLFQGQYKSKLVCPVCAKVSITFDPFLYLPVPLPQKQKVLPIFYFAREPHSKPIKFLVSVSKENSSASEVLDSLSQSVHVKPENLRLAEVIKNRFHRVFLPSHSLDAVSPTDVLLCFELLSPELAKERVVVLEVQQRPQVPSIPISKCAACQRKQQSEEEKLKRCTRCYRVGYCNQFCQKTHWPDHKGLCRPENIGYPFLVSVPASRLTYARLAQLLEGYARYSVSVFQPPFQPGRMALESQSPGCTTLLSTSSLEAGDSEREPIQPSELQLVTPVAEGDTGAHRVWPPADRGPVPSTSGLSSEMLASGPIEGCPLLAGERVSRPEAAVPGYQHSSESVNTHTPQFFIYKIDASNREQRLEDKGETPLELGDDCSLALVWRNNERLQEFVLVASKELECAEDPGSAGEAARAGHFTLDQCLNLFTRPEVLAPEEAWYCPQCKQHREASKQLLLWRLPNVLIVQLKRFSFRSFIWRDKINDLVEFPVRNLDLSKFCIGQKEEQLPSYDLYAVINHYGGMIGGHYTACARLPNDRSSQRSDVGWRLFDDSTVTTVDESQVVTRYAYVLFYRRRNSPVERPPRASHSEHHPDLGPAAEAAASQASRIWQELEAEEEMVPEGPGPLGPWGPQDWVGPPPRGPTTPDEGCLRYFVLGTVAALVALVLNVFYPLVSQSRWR
Experimental: as §1

[4] = 2 hrs treatment, Ub-PA or Ub-VME probe, western blot

C[C@H](CC1CCCCC1)C(=O)N1CC[C@@](O)(Cn2cc(C(=O)N3CCNCC3)c(-c3ccccc3)cc2=O)C2(CCCC2)C1 [ADC-141, 1-(((S)-7-((R)-3-Cyclohexyl-2-methylpropanoyl)-10-hydroxy-7-azaspiro[4.5]decan-10-yl)methyl)-4-phenyl-5-(piperazine-1-carbonyl)pyridin-2(1H)-one]
cell permeability [1]: good cell permeability
EC50 (USP19 target engagement, densitometry) [1, 4]: low nanomolar
cell permeability [2]: good cell permeability
EC50 (USP19 target engagement, densitometry) [2, 4]: low nanomolar
cell permeability [3]: good cell permeability
EC50 (USP19 target engagement, densitometry) [3, 4]: low nanomolar
